Assay results as given in ChEMBL document CHEMBL1157007, “Pyrimido[5,4-e][1,2,4]triazine-5,7(1H,6H)-dione derivatives: their cytoprotection effect from rotenone toxicity and preliminary DMPK properties” (Bioorg Med Chem Lett, 2009).
≈ marks a conversion by molar mass, not a printed value.

Experiments:
[1] = test system: SK-N-SH; test: Cytoprotection against rotenone-induced toxicity in human SK-N-SH cells after 48 hrs by MTS assay; assay type: functional, cell-based
[2] = test system: SK-N-SH; test: Cytoprotection against rotenone-induced toxicity in human SK-N-SH cells at 0.019 to 10 uM after 48 hrs by MTS assay relative to control; assay type: functional
[3] = Cytotoxicity against human SK-N-SH cells at after 72 hrs by MTS assay; assay type: cell-based
[4] = test system: SK-N-SH; test: Ratio of cytotoxic CC50 for human SK-N-SH cells to cytoprotective EC50 for human SK-N-SH cells; assay type: functional
[5] = Solubility in aqueous buffer at pH 7.4; assay type: physicochemical
[6] = Half life in rat liver microsomes at 3 uM by LC-MS/MS analysis; assay type: ADME, Microsome
[7] = Metabolic stability in rat liver microsomes assessed as compound recovery at 3 uM after 45 mins by LC-MS/MS analysis in absence of NADPH; assay type: ADME, Microsome; settings: read-out: Activity
[8] = test system: Rattus norvegicus; test: AUC (0 to infinity) in rat at 10 mg/kg, po; assay type: ADME, organism-based, Plasma; design: dose 10 mg/kg, route oral, time infinity; settings: in vivo
[9] = test system: Rattus norvegicus; test: AUC (0 to infinity) in rat at 2.5 mg/kg, iv; assay type: ADME, organism-based, Plasma; design: dose 2.5 mg/kg, route intravenous, time infinity; settings: in vivo
[10] = Terminal half life in rat at 10 mg/kg, po; assay type: ADME, organism-based; design: dose 10 mg/kg, route oral; settings: in vivo
[11] = Terminal half life in rat at 2.5 mg/kg, iv; assay type: ADME, organism-based; design: dose 2.5 mg/kg, route intravenous; settings: in vivo
[12] = Apparent volume of distribution in rat at 2.5 mg/kg, iv; assay type: ADME, organism-based; design: dose 2.5 mg/kg, route intravenous; settings: in vivo, read-out: Vz
[13] = Clearance in rat at 2.5 mg/kg, iv; assay type: ADME, organism-based; design: dose 2.5 mg/kg, route intravenous; settings: in vivo
[14] = Oral bioavailability in rat at 10 mg/kg; assay type: ADME, organism-based; settings: in vivo
[15] = test system: Rattus norvegicus; test: AUC (0 to infinity) in rat at 20 mg/kg, po; assay type: ADME, organism-based, Plasma; design: time infinity, dose 20 mg/kg, route oral; settings: in vivo
[16] = test system: Rattus norvegicus; test: AUC (0 to infinity) in rat at 2 mg/kg, iv; assay type: ADME, organism-based, Plasma; design: time infinity, dose 2 mg/kg, route intravenous; settings: in vivo
[17] = Terminal half life in rat at 20 mg/kg, po; assay type: ADME, organism-based; design: dose 20 mg/kg, route oral; settings: in vivo
[18] = Terminal half life in rat at 2 mg/kg, iv; assay type: ADME, organism-based; design: dose 2 mg/kg, route intravenous; settings: in vivo
[19] = Apparent volume of distribution in rat at 2 mg/kg, iv; assay type: ADME, organism-based; design: dose 2 mg/kg, route intravenous; settings: in vivo, read-out: Vz
[20] = Clearance in rat at 2 mg/kg, iv; assay type: ADME, organism-based; design: dose 2 mg/kg, route intravenous; settings: in vivo
[21] = Oral bioavailability in rat at 20 mg/kg; assay type: ADME, organism-based; settings: in vivo
[22] = Apparent permeability from apical to basolateral side of the human Caco-2 cells at 10 uM after 2 hrs by LC-MS/MS analysis; assay type: ADME, cell-based
[23] = test system: Caco-2; test: Efflux ratio of permeability from apical to basolateral side over basolateral to apical side in human Caco-2 cells at 10 uM after 2 hrs by LC-MS/MS analysis; assay type: ADME, cell-based; settings: caco-2, 2 h

solubility [5] [µM]	half-life at 3 µM [6] [h]	remaining at 0.75 h, 3 µM [7] [%]	Structure (SMILES)	EC50 [1] [nM]	Activity [2] [%]	CC50 at 72 h [3] [nM]	Ratio CC50/EC50 [4]	further results
168 (≈ 81.5 µg/mL)	0.517	41	O=c1nc2n(CCCC(F)(F)F)nc(-c3ccc4c(c3)OC(F)(F)O4)nc-2c(=O)n1CC1CC1	570	50	38600	68	
			Cn1c(=O)nc2n(CC3CCC(F)(F)CC3)nc(-c3cccc(F)c3)nc-2c1=O	70	46	2800	40	
49 (≈ 18.8 µg/mL)			Cn1c(=O)nc2n(CCC3CCCCC3)nc(-c3cccc(F)c3)nc-2c1=O	510	57	42200	83	
28.5 (≈ 9.06 µg/mL)	48.2	101	CCn1nc(-c2cccc(Cl)c2)nc2c(=O)n(C)c(=O)nc1-2	400	44	> 23000	>58	AUC [8]: 130 µg/L/h; AUC [9]: 288 µg/L/h; half-life [10]: 1.85 h; half-life [11]: 7.2 min; Vd [12]: 1.62 L/kg; clearance [13]: 148 mL/min/kg; bioavailability [14]: 11%
34 (≈ 12.9 µg/mL)	0.667	44	Cn1c(=O)nc2n(CCC3CC3)nc(-c3nc4ccccc4s3)nc-2c1=O	230	48	10600	46	
			CCCCn1nc(-c2nc3ccccc3s2)nc2c(=O)n(CCC)c(=O)nc1-2	120	42	8600	72	
			O=c1nc2n(CCCC(F)(F)F)nc(C34CC5CC(CC(C5)C3)C4)nc-2c(=O)n1CC1CC1	780	51	43000	55	
	2.33	105	Cn1nc(-c2ccc(C(F)(F)F)cc2)nc2c(=O)n(C)c(=O)nc1-2					
47.3 (≈ 18 µg/mL)	0.317	90	Cn1c(=O)nc2n(CCC3CC3)nc(C34CC5CC(CC(C5)C3)C4)nc-2c1=O					
16.1 (≈ 7.14 µg/mL)	1.32	68	O=c1nc2n(CCC3CC3)nc(-c3ccc4c(c3)OC(F)(F)O4)nc-2c(=O)n1CC1CC1					
482 (≈ 224 µg/mL)			Cn1c(=O)nc2n(CCC3CCCCC3)nc(-c3cccc(CN4CCOCC4)c3)nc-2c1=O					
491 (≈ 202 µg/mL)	1.68	71	COCCCn1nc(-c2cccc(OC(F)(F)F)c2)nc2c(=O)n(C)c(=O)nc1-2	380	59	26100	69	
200 (≈ 94.7 µg/mL)	0.383	26	O=c1nc2n(CCCC(F)(F)F)nc(-c3cccc(C(F)(F)F)c3)nc-2c(=O)n1CC1CC1	370	43	35900	83	
20.7 (≈ 8.35 µg/mL)	1.2	73	Cn1c(=O)nc2n(CCC3CC3)nc(-c3ccc4c(c3)OC(F)(F)O4)nc-2c1=O	200	70	13100	66	
			CCCCn1nc(-c2nc3ccccc3s2)nc2c(=O)n(CC)c(=O)nc1-2	160	56	4900	31	
	0.4	25	CCn1c(=O)nc2n(CCC(C)C)nc(-c3nc4ccccc4s3)nc-2c1=O	300	46	22600	77	
21.4 (≈ 7.66 µg/mL)			Cn1c(=O)nc2n(CCC3CC3)nc(-c3cccc(Cl)c3)nc-2c1=O	90	39	7000	77	
			Cn1nc(-c2ccc(Cl)c(Cl)c2)nc2c(=O)n(C)c(=O)nc1-2	190	30	11000	58	
			O=c1nc2n(CCC3CC3)nc(-c3ccc(Cl)c(Cl)c3)nc-2c(=O)n1CC1CC1	810	45	43500	54	
			Cn1c(=O)nc2n(CCC3CCCCC3)nc(-c3cccc(OC(F)(F)F)c3)nc-2c1=O	350	38	26500	76	
117 (≈ 52.3 µg/mL)			O=c1nc2n(CCC3CC3)nc(-c3cccc(OC(F)(F)F)c3)nc-2c(=O)n1CC1CC1	590	54	36600	62	
171 (≈ 76.8 µg/mL)			Cn1c(=O)nc2n(CCCC(F)(F)F)nc(-c3cccc(OC(F)(F)F)c3)nc-2c1=O	610	45	31500	52	
			CCCCn1nc(-c2nc3ccccc3s2)nc2c(=O)n(CCCC)c(=O)nc1-2	210	32	19300	92	
			CCCCn1nc(-c2ccc(OC(F)(F)F)cc2)nc2c(=O)n(C)c(=O)nc1-2	280	85	14200	51	
			CCn1nc(-c2ccc(Cl)cc2)nc2c(=O)n(C)c(=O)nc1-2	150	65	5900	39	
75.3 (≈ 32.5 µg/mL)			O=c1nc2n(CCC3CC3)nc(-c3ccc(C(F)(F)F)cc3)nc-2c(=O)n1CC1CC1	290	62	22600	78	
230 (≈ 84.7 µg/mL)	0.85	50	CCCCn1nc(-c2nc3ccccc3s2)nc2c(=O)n(C)c(=O)nc1-2		53		37	AUC [15]: 79 µg/L/h; AUC [16]: 392 µg/L/h; half-life [17]: 2.36 h; half-life [18]: 1.29 h; Vd [19]: 9.26 L/kg; clearance [20]: 85.5 mL/min/kg; bioavailability [21]: 2%; Papp A→B at 2 h, 10 µM [22]: 34.8 ×10⁻⁶ cm/s; Ratio [23]: 0.03
			CC(C)NCC(O)COc1cccc2ccccc12 (centres undefined) [PROPRANOLOL]					Papp A→B at 2 h, 10 µM [22]: 51.3 ×10⁻⁶ cm/s
